Measurements published in ChEMBL document CHEMBL1909046, “DrugMatrix in vitro pharmacology data”.

Experiments:
[1] = molecular target: T1, Polyunsaturated fatty acid lipoxygenase ALOX15 (Oryctolagus cuniculus, UniProt P12530); test: biochemical; type: tissue-based, Reticulocytes; conditions: reticulocytes;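 note: inhibition of 15-lipoxygenase enzyme activity measured with linoleic acid as the substrate; in other assays of this panel Not Active means under 50% inhibition at 10 µM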
T1 sequence (P12530 whole entry): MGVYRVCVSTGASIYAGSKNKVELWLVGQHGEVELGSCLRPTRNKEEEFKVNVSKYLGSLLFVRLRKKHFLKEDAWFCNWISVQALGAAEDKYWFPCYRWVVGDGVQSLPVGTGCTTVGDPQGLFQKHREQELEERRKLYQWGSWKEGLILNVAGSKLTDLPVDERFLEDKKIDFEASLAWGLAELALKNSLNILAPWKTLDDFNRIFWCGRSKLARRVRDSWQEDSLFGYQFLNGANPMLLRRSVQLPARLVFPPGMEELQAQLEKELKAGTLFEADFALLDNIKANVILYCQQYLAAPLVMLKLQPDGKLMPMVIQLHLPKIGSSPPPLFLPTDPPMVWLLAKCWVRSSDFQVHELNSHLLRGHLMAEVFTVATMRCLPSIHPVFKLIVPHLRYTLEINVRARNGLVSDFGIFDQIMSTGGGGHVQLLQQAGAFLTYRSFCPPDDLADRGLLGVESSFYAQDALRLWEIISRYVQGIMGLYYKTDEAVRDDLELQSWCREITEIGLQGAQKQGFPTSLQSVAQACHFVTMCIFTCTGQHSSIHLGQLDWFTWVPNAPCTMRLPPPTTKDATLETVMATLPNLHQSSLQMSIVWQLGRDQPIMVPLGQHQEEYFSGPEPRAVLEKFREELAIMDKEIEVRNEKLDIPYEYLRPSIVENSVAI

Substance-K receptor = molecular target: T2, Substance-K receptor (Homo sapiens, UniProt P21452); type: cell membranes, CHO, Membrane; conditions: cho; note: in other assays of this panel Not Active means under 50% inhibition at 10 µM
T2 sequence (P21452 whole entry): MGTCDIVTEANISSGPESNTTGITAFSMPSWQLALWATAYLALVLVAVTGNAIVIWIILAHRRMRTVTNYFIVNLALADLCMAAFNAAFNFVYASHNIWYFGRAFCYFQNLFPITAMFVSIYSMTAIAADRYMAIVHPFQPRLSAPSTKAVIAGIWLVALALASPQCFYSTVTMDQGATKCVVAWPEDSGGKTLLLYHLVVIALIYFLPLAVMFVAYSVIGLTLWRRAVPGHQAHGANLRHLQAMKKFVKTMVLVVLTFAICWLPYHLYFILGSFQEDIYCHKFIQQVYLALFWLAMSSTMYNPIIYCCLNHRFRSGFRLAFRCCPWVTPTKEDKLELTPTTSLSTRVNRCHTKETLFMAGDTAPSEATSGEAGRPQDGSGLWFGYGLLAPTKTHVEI

Cathepsin G = molecular target: T3, Cathepsin G (Homo sapiens, UniProt P08311); type: tissue-based; conditions: neutrophil;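 note: inhibition of Cathepsin G enzyme activity, tested on an AMC-conjugated peptide substrate; in other assays of this panel Not Active means under 50% inhibition at 10 µM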
T3 sequence (P08311 whole entry): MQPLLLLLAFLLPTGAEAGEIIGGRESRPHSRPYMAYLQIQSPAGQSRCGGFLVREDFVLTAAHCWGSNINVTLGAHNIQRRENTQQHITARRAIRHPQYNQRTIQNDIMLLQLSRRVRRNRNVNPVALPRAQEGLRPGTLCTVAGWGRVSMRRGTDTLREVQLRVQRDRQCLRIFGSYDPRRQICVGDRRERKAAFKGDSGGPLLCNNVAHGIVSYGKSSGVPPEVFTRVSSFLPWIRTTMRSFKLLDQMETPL

[2] = molecular target: T4, Angiotensin-converting enzyme (Oryctolagus cuniculus, UniProt P12822); type: tissue-based, Lung;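 note: enzymatic inhibition of angiotensin-converting enzyme measured with FAPGG as the substrate; in other assays of this panel Not Active means under 50% inhibition at 10 µM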
T4 sequence (P12822 whole entry): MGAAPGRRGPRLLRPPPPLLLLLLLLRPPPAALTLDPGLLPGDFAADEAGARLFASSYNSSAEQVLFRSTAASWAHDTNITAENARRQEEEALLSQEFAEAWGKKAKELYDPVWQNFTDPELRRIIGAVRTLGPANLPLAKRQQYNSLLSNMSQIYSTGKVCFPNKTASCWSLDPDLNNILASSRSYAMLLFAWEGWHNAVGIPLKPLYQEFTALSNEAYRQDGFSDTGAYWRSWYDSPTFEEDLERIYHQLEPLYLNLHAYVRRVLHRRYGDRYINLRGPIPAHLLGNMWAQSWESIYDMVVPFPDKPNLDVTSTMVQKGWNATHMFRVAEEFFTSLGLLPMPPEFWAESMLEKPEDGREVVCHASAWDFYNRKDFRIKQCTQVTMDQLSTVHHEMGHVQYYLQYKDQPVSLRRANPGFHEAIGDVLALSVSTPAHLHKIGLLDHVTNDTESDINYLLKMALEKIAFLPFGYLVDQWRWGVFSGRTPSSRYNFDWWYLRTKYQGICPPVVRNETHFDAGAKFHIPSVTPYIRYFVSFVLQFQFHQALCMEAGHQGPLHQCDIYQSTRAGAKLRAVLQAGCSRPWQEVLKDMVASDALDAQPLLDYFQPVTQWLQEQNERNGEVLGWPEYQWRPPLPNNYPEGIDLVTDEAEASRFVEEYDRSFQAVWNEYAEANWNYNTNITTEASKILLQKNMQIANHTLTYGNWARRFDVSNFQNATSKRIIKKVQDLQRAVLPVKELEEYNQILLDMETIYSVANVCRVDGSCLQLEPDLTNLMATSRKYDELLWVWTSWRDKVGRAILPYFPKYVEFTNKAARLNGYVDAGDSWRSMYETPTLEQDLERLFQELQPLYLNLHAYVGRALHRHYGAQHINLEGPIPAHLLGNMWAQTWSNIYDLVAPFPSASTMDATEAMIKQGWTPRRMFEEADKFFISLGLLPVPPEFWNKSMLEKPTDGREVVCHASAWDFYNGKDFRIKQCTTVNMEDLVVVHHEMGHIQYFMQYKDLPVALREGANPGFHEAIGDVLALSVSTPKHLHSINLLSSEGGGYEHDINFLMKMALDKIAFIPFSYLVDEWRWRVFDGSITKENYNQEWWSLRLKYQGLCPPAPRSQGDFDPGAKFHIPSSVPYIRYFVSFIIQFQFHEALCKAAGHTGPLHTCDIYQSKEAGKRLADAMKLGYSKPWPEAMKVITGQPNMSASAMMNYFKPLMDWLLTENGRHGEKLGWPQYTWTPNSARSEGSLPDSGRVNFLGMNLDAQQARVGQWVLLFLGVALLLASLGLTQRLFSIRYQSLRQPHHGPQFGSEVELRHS

[3] = DRUGMATRIX: Tumor Necrosis Factor (TNF), Non-Selective radioligand binding (ligand: [125I] TNF-alpha); type: cell membranes, Membrane; conditions: u-937; Not Active = under 50% inhibition at 10 µM
[4] = DRUGMATRIX: Phorbol Ester radioligand binding (ligand: [3H] PDBu); type: cell membranes, Mus musculus, ICR, Brain, Membrane; conditions: Not Active = under 50% inhibition at 10 µM

CNC1(c2ccccc2Cl)CCCCC1=O (centres undefined) [KETAMINE]
Not Active: IC50 [1] | IC50 (Substance-K receptor) | IC50 (Cathepsin G) | IC50 [2] | IC50 [3] | Ki [3] | IC50 [4] | Ki [4]

N#Cc1ccc(C(c2ccc(C#N)cc2)n2cncn2)cc1 [LETROZOLE]
Not Active: IC50 [1] | IC50 (Substance-K receptor) | IC50 (Cathepsin G) | IC50 [2] | IC50 [3] | Ki [3] | IC50 [4] | Ki [4]

CCN1CCC[C@H]1CNC(=O)c1cc(S(N)(=O)=O)ccc1OC [LEVOSULPIRIDE]
Not Active: IC50 [1] | IC50 (Substance-K receptor) | IC50 (Cathepsin G) | IC50 [2] | IC50 [3] | Ki [3] | IC50 [4] | Ki [4]

CCN(CC)CC(=O)Nc1c(C)cccc1C [LIDOCAINE]
Not Active: IC50 [1] | IC50 (Substance-K receptor) | IC50 (Cathepsin G) | IC50 [2] | IC50 [3] | Ki [3] | IC50 [4] | Ki [4]

O=C1Nc2ccc(Cl)cc2C(c2ccccc2Cl)=NC1O (centres undefined) [LORAZEPAM]
Not Active: IC50 [1] | IC50 (Substance-K receptor) | IC50 (Cathepsin G) | IC50 [2] | IC50 [3] | Ki [3] | IC50 [4] | Ki [4]

CO[C@@H]1[C@@H](OC)[C@H](C)[C@@](O)(CC(=O)O)O[C@H]1[C@H](C)[C@H]1O[C@@]2(CC[C@@](C)([C@H]3CC[C@@](C)([C@@H]4O[C@@H]([C@H]5O[C@](C)(O)[C@H](C)C[C@@H]5C)C[C@@H]4O[C@@H]4C[C@H](OC)[C@@H](OC)[C@H](C)O4)O3)O2)C[C@H](O)[C@H]1C [MADURAMICIN ACID]
Not Active: IC50 [1] | IC50 (Substance-K receptor) | IC50 (Cathepsin G) | IC50 [2] | IC50 [3] | Ki [3] | IC50 [4] | Ki [4]

COc1c2occc2cc2ccc(=O)oc12 [METHOXSALEN]
Not Active: IC50 [1] | IC50 (Substance-K receptor) | IC50 (Cathepsin G) | IC50 [2] | IC50 [3] | Ki [3] | IC50 [4] | Ki [4]

C[C@H]1C[C@@H]2[C@H]([C@@H](O)C[C@@]3(C)[C@H]2CC[C@]3(O)C(=O)CO)[C@@]2(C)C=CC(=O)C=C12 [METHYLPREDNISOLONE]
Not Active: IC50 [1] | IC50 (Substance-K receptor) | IC50 (Cathepsin G) | IC50 [2] | IC50 [3] | Ki [3] | IC50 [4] | Ki [4]

Cc1cccc(C)c1OCC(C)N (centres undefined) [MEXILETINE]
Not Active: IC50 [1] | IC50 (Substance-K receptor) | IC50 (Cathepsin G) | IC50 [2] | IC50 [3] | Ki [3] | IC50 [4] | Ki [4]

Nc1cc(N2CCCCC2)nc(N)[n+]1[O-] [MINOXIDIL]
Not Active: IC50 [1] | IC50 (Substance-K receptor) | IC50 (Cathepsin G) | IC50 [2] | IC50 [3] | Ki [3] | IC50 [4] | Ki [4]

CN[C@H]1CC[C@@H](c2ccc(Cl)c(Cl)c2)c2ccccc21 [SERTRALINE]
Not Active: IC50 [1] | IC50 (Substance-K receptor) | IC50 (Cathepsin G) | IC50 [2]
